Reference: paper PMC4253978, “Characterization of the Anopheles gambiae octopamine receptor and discovery of potential agonists and antagonists using a combined computational-experimental approach” (Malaria Journal, 2014)
Structures can show the parent of a compound that is named as a salt. Where two headings read alike, the source gives them in different places.

How the values were obtained:
[1] = biological target: T1, AgOAR45B (Anopheles gambiae, UniProt F5HJT6); assay: 3H-Yohimbine competition radioligand binding assay on membranes; conditions: competition with 16 nM 3H-Yohimbine
T1 sequence (F5HJT6 entry or part of it): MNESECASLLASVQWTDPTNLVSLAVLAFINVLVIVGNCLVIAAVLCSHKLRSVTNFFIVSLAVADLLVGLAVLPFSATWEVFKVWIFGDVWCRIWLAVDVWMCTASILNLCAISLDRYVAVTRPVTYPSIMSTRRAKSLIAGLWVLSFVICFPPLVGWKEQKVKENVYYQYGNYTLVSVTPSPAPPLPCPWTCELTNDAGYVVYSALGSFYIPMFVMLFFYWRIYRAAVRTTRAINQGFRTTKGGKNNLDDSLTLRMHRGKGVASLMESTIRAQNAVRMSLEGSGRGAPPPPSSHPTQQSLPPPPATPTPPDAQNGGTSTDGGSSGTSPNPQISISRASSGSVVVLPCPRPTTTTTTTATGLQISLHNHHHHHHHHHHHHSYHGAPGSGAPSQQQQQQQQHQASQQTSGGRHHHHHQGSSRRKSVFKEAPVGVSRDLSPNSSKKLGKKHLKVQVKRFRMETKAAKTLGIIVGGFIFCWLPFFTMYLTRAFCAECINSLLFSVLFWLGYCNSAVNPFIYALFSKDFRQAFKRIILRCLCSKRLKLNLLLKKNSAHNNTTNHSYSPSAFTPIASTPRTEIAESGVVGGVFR
Description: Cells in T75 flasks were washed with 10 ml of PBS, removed by scraping, centrifuged at 500 g, and then resuspended in 5 ml of lysis buffer, 50 mM Tris-Cl pH 7.4. Cells were incubated on ice for 10 min and homogenized with a Dounce homogenizer with 30 strokes. The homogenate and 5 ml wash with lysis buffer were then centrifuged at 23,000 g for 30 min at 4°C to pellet crude membranes. The resulting pellet was re-suspended in 50 mM Tris-Cl pH 7.4, 5 mM MgCl2, 0.5 mM EDTA pH 7.4 and quantified by micro BCA assay (Thermo).
Radioligand binding assays were carried out using ^3H-Yohimbine to determine binding affinity of the octopamine receptor with different compounds. Isolated membranes, 30 μg per well, were incubated in the presence of 16 nM ^3H-Yohimbine (American Radiolabeled Chemicals) in binding buffer, and various concentrations of compounds. The final reaction volume was […] per well in a 96-well assay plate. […] clonidine was used to determine non-specific binding in each experiment. After a two-hour incubation, membranes were collected and washed on filter mats, pretreated with 0.3% polyethylenimine (Sigma) using a Brandel 96-well harvester and counted in a Perkin Elmer Microbeta counter.

[2] = biological target: T1, AgOAR45B; assay type: cell-based; conditions: for IC50: read-out: IC 50 (antagonist), in the presence of 1 μM octopamine
Description: GloResponse™CRE-luc2P HEK293 reporter cell line (Promega) were maintained as adherent culture at 37°C, 5% CO2 in DMEM (Invitrogen) supplemented with 10% fetal calf serum (Atlanta), and […] hygromycin B. Transfection of cells was carried out using the Amaxa Nucleofector kit per the manufacturer’s instructions. […] Stable lines were created by applying […] G418 for three weeks. Stable clones of AgOAR45B expressing HEK293 reporter cells were created through two rounds of limiting dilution cloning.
Intracellular cAMP increase was monitored through a CRE-luc reporter construct in HEK293 cells (Promega). Stable cell lines were plated at a density of 4×10^4 cells per well in white 96-well assay plates (Corning, Cat. #3917). Cells were immediately treated with the various compounds, and returned to the incubator for four hours before being assayed. cAMP was quantified through luciferase production using the Dual-Glo luciferase assay kit (Promega) following the manufacturer’s instructions. Luciferase units were normalized to the cell number using the internal Rluc construct in the pF9A expression plasmid.

[3] = biological target: AgOAR45A (Anopheles gambiae, UniProt Q7PRZ8, DEL426-427); assay: cell-based
Chain of AgOAR45A (Q7PRZ8 entry or part of it DEL426-427): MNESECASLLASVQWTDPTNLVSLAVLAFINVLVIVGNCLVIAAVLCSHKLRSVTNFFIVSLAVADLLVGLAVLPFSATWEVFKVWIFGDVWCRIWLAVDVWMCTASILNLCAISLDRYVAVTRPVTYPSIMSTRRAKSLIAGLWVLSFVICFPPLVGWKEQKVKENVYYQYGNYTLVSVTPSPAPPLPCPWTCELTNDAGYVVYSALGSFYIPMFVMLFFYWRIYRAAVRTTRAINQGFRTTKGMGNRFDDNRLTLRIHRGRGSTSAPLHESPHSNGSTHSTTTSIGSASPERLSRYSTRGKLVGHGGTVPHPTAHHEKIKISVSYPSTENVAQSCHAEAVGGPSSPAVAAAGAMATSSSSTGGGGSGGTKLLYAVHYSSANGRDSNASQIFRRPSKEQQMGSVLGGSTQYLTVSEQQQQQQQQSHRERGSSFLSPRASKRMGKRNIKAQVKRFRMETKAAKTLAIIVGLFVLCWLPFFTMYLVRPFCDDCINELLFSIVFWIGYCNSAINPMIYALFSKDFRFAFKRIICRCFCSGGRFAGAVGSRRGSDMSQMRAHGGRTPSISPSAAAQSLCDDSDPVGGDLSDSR

[4] = read-out: EC 50 (agonist), AgOAR45B, HEK293-CRE-Luc cells

| Compound | Ki [1] [µM] | EC50 ([2]; Table 2, AgOAR45B reporter assay) [µM] | EC50 [2, 4] [µM] | EC50 [3] [µM] | IC50 ([2]; AgOAR45B) [µM] |
| --- | --- | --- | --- | --- | --- |
| NCC(O)c1ccc(O)cc1 (racemic) [Octopamine, DL-octopamine] | 7.7 | 0.017 | 0.017 | 0.053 |  |
| CN(C)CCCN1c2ccccc2Sc2ccc(Cl)cc21 [Chlorpromazine, chlorpromazine] |  |  |  |  | 9.9 |
| Clc1cccc(Cl)c1N=C1NCCN1 [Clonidine, clonidine] |  |  | 0.00024 | 0.002 |  |
| NCCc1ccc(O)c(O)c1 [Dopamine, dopamine] |  |  | > 50 | > 50 |  |
| CCN(CC)CCNC(=O)c1cc(Cl)c(N)cc1OC [Metaclopramide, Metoclopramide hydrochloride] |  |  |  |  | > 50 |
| c1ccc2c(CC3=NCCN3)cccc2c1 [Naphazoline, naphazoline] |  |  | 0.00023 | 0.0022 |  |
| Cc1ccc(N(CC2=NCCN2)c2cccc(O)c2)cc1 [Phentolamine, phentolamine] |  |  | 0.0058 | 0.01 |  |
| CC(CN1c2ccccc2Sc2ccccc21)N(C)C (stereo not drawn) [Promethazine, promethazine] |  |  |  |  | 2 |
| NCCc1c[nH]c2ccc(O)cc12 [Serotonin, serotonin] |  |  | > 50 | > 50 |  |
| c1ccc(CC2=NCCN2)cc1 [Tolazoline, tolazoline] |  |  | 0.005 | 0.28 |  |
| NCCc1ccc(O)cc1 [Tyramine, tyramine] |  |  | 0.84 | 4.6 |  |
